Results as given in PubChem BioAssay (NCI).
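Five compound concentrations were applied to cells in 96-well plates for 48 hours; endpoints were derived by simple linear interpolation of the resulting dose-response curve. GI50 = concentration required for 50% inhibition of growth. TGI: total growth inhibition.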

Experiments:
Experiment in all cases: NCI tumour cell line growth inhibition, 48 h
OVCAR-4 ovarian = system: OVCAR-4 ovarian
MDA-MB-231 breast = system: MDA-MB-231 breast
SNB-19 CNS = system: SNB-19 CNS
ACHN renal = system: ACHN renal
SF-268 CNS = system: SF-268 CNS
UACC-62 melanoma = system: UACC-62 melanoma
MDA-MB-435 = system: MDA-MB-435
TK-10 renal = system: TK-10 renal
SR leukemia = system: SR leukemia
HS 578T breast = system: HS 578T breast

| Structure (SMILES) | GI50 (OVCAR-4 ovarian) [µM] | TGI (OVCAR-4 ovarian) [µM] | GI50 (MDA-MB-231 breast) [µM] | TGI (MDA-MB-231 breast) [µM] | GI50 (SNB-19 CNS) [µM] | TGI (SNB-19 CNS) [µM] | GI50 (ACHN renal) [µM] | TGI (ACHN renal) [µM] | GI50 (SF-268 CNS) [µM] | TGI (SF-268 CNS) [µM] | GI50 (UACC-62 melanoma) [µM] | TGI (UACC-62 melanoma) [µM] | GI50 (MDA-MB-435) [µM] | TGI (MDA-MB-435) [µM] | GI50 (TK-10 renal) [µM] | TGI (TK-10 renal) [µM] | GI50 (SR leukemia) [µM] | TGI (SR leukemia) [µM] | GI50 (HS 578T breast) [µM] | TGI (HS 578T breast) [µM] |
| --- | --- | --- | --- | --- | --- | --- | --- | --- | --- | --- | --- | --- | --- | --- | --- | --- | --- | --- | --- | --- |
| COc1cc(/C=C2\CC3C4CC=C5CC(N6CCCC6)CC[C@]5(C)C4CC[C@]3(C)C2OC(C)=O)ccc1OCCN1CCCC1 (stereo not given in full) | 2.41 | 5.74 | 8.82 | 22.5 | 5.73 | 22.8 | 1.73 | 3.22 | 2.53 | 6.04 | 1.79 | 3.45 | 19.6 | 35.5 | 14.9 | 29.2 | 1.83 | 4.01 | 2.38 | 4.54 |
| C[C@H]1CCC/C=C/[C@@H]2C[C@H](N)C[C@H]2[C@H](O)/C=C/C(=O)O1 | > 100 | > 100 | > 100 | > 100 | > 100 | > 100 | > 100 | > 100 | > 100 | > 100 | > 100 | > 100 | > 100 | > 100 | > 100 | > 100 | 74 | > 100 | > 100 | > 100 |
| Cc1c(C(=O)NN)nnn1-c1ccnc2c(C(F)(F)F)cccc12 | 12 | 89.4 | > 100 | > 100 | > 100 | > 100 | > 100 | > 100 | > 100 | > 100 | > 100 | > 100 | > 100 | > 100 | > 100 | > 100 | > 100 | > 100 | > 100 | > 100 |
| CNC(=O)c1cc(Oc2ccc(NC(=O)Nc3ccc(Cl)c(OC(F)(F)F)c3)c(F)c2)ccn1 | 1.24 | > 33.2 | 1.26 | 8.74 | 3.06 | 20.7 | 1.33 | > 33.2 | 2.44 | 14.2 | 1.34 | 10 | 1.29 | 10.9 | 2.44 | > 33.2 | 1.49 | 7.99 | 3.81 | > 33.2 |
| Cn1c(N)nc2c(nc(OCc3ccccc3)n2C2OC(CO)C(O)C2O)c1=O (stereo not given) | – | > 100 | – | > 100 | – | > 100 | – | > 100 | – | > 100 | – | > 100 | – | > 100 | – | > 100 | – | > 100 | – | > 100 |
| CCCCCCNc1nc(NCCCCCC)c2[nH]c(NCCCCCC)nc2n1 | 6.97 | 21.2 | 5.09 | 19.3 | 15.5 | 29.5 | 15 | 37.8 | 4.36 | 15.5 | 13.4 | 28.6 | 8.75 | 24.9 | 21.3 | 46.6 | 0.582 | 3.43 | 1.97 | 9.84 |
| Cc1ccc([N+](=O)[O-])c2c(NCCCN(C)C)ccnc12 | – | > 76.9 | – | > 100 | – | > 100 | – | > 100 | – | > 100 | – | – | – | 45.1 | – | > 100 | – | > 100 | – | > 100 |
| COc1ccc(C2C(C#N)=C(N)OC3=C2CCCc2ccc(F)cc23)cc1OC (stereo not given) | 23 | 68 | 17.3 | 45.5 | 30.2 | > 82.4 | 19.9 | 41.7 | 20.1 | 48.5 | 21.6 | 47 | 12.9 | > 53.3 | 28.8 | 56.3 | > 100 | > 100 | 22 | 51.5 |
| CCCNCc1cc(C)cc2c1nc(N1CCNCC1)n2Cc1cc(C)c(F)c(C)c1 | 7.12 | 21.8 | 1.61 | 3.8 | 2.41 | 7.18 | 4.37 | 15.5 | 5.11 | 19.7 | 1.87 | 3.66 | 1.7 | 3.21 | 14.3 | 28 | 1.22 | 3.39 | 2.56 | 11.6 |
| O=P(O)(O)C(O)(Cn1ccnc1)P(=O)(O)O | > 100 | > 100 | > 40.6 | > 57 | > 81.2 | > 100 | > 46.2 | > 84.8 | > 100 | > 100 | > 65.2 | > 100 | > 100 | > 100 | > 36.2 | > 100 | > 100 | > 100 | 4.67 | > 45.5 |
| NC(N)=N/N=C/c1c(-c2ccccn2)nc2sc(Cl)cn12 | – | – | 5.64 | 11.7 | 7.97 | 16 | 7.49 | 15.3 | 8.04 | 17.8 | 8.01 | 14.9 | 7.56 | 14.2 | 8.13 | 15.1 | 0.845 | 3.05 | 8.91 | 17.3 |
| CC(=O)n1c(-c2ccc(Cl)cc2)nc2c(c1=O)C(c1ccc(Cl)cc1)c1sc3c(Cl)cccc3c1O2 (stereo not given) | 0.696 | 4.25 | 0.887 | 2.89 | 0.469 | 1.98 | 1 | 3.91 | 0.684 | 3.24 | 0.351 | 1.6 | 0.167 | 0.463 | 0.987 | 2.62 | 0.436 | 3.95 | 0.396 | 3.23 |
| CN(C)c1nc(-c2cccs2)n2nc(-c3ccc(Cl)cc3)cc2n1 | – | – | 3.7 | > 100 | 64.1 | > 100 | 3.97 | > 100 | 21.3 | > 100 | 5.92 | > 100 | – | – | – | – | > 100 | > 100 | 3.11 | > 100 |
| C=CCOc1c(Br)cc(Br)cc1Br | 13.6 | 39.9 | 6.7 | > 100 | 17.4 | > 100 | 16.5 | > 100 | 21.1 | > 100 | 4.8 | 91.7 | 3.46 | 66.1 | > 100 | > 100 | 4.84 | > 100 | 17.8 | > 100 |
| CCN(Cc1c(F)cccc1F)c1ccc(CO)c(Cl)c1 | 0.0429 | 0.319 | 13 | 38.3 | 24.4 | > 100 | 20.8 | > 74.5 | 24.8 | > 77.3 | 0.0517 | 0.325 | 14.8 | 40.9 | – | – | 16.5 | 49.2 | 20.4 | 77.4 |
| CC(=O)[CH-]C(C)=O.CC(=O)[CH-]C(C)=O.N=CC=N.[Sn+2] | 2.62 | 10.5 | 2.72 | 9.87 | 14.6 | 27.8 | 3.2 | 9.77 | 3.28 | 10.5 | 2.17 | 5.85 | 2.59 | 7.43 | 4.48 | 10.7 | 1.06 | 5.3 | 2.66 | 10.5 |
| Nc1ccc(SC23CC4CC(CC(C4)C2)C3)cc1 | – | – | – | > 100 | – | > 100 | – | > 100 | – | > 100 | – | > 100 | – | > 100 | – | > 100 | – | > 100 | – | > 100 |
| CCCS(=O)(=O)c1nc(NC2CC2)cc(-c2ccc3c(ccn3C3CC(C)(C)NC(C)(C)C3)c2)n1 | – | – | – | – | – | – | 1.77 | 3.35 | 1.88 | 3.89 | – | – | 1.47 | 2.95 | 1.52 | 2.98 | 0.256 | 0.784 | 2.1 | 4.93 |
| Cc1ncc([N+](=O)[O-])n1CCNC(=O)CCCCn1ccnc1[N+](=O)[O-] | – | – | – | > 100 | – | > 100 | – | > 100 | – | > 100 | – | > 100 | – | > 100 | – | – | – | > 100 | – | > 100 |
| Cc1ccc(C(=O)CC(Sc2cccc(Cl)c2Cl)c2ccc(Cl)cc2)cc1C (stereo not given) | 34.5 | > 100 | 17.9 | 39 | 27.5 | 78.8 | – | – | 21.3 | 48.2 | 21.2 | 57.6 | 20 | 50 | 17.2 | 35 | 7.23 | > 100 | 27.9 | 75.2 |
| COC(=O)C(Cc1ccccc1)N/C=C\C(=O)c1ccc(Cl)cc1 (stereo not given) | 50.4 | > 100 | 14.4 | 40.9 | 38 | > 100 | 23.6 | 54.9 | 31.6 | 67.4 | 19.7 | 45.8 | 14.1 | 30.8 | – | – | 48.1 | > 100 | 25 | 63.8 |
| CCOC(=O)[C@@H](C)C[C@H](Cc1ccccc1)NC(=O)c1csc([C@@H](C[C@H](C(C)C)N(C)C(=O)[C@@H](NC(=O)[C@H]2CCCCN2C)C(C)(C)C)OC(C)=O)n1 | 0.00328 | > 16.7 | < 0.00167 | 0.647 | < 0.00167 | > 16.7 | < 0.00167 | > 16.7 | < 0.00167 | > 16.7 | < 0.00167 | > 16.7 | – | – | 0.117 | > 16.7 | < 0.00167 | > 16.7 | < 0.00167 | 0.472 |
| Cc1sc(C)c(-c2ccc(CO)o2)c1-c1ccc(CO)o1 | 0.299 | > 100 | 51 | > 100 | > 100 | > 100 | 64.2 | > 100 | 91.1 | > 100 | – | – | > 100 | > 100 | 0.116 | 0.426 | > 77.9 | > 100 | 43 | > 100 |
| Cc1ccc2/c(=C/c3ccc(N(C)C)cc3)c3cc(-c4ccccc4)[n+](C)n3c2c1 | 0.816 | 20.2 | 0.0337 | 1.06 | 0.0969 | > 44.1 | 0.175 | – | – | – | 0.0292 | 0.252 | 0.037 | 1.66 | 0.266 | 2.36 | < 0.01 | – | 0.035 | 2.89 |
| COc1cc(-c2cn(C)c(=O)c(C)c2C)cc(OC)c1CN1CC[C@H](N2CCN(c3ccc(N[C@H]4CCC(=O)NC4=O)cc3F)CC2)C(F)(F)C1 | 12.1 | 26.9 | 11.5 | 25.4 | 14.8 | 31.6 | 15.2 | 28.8 | 16.5 | 40.2 | – | – | 13.8 | 30 | 12 | 28.8 | 6.7 | 51 | 4 | 38.5 |
| COc1cc2c3c(n(CCCN4CCC(N)CC4)c(=O)c2cc1OC)-c1cc2c(cc1C3=O)OCO2 | 0.211 | 1.27 | 0.682 | 1.36 | 1.46 | 8.7 | 0.336 | 1.24 | 1.72 | 8.89 | 1.33 | 6.34 | 1.77 | 8.47 | 0.774 | 4.36 | – | – | 1.69 | 11.7 |
| C=C(C)[C@@H]1CC[C@@]2(C(=O)O)CC[C@]3(C)C(CCC4[C@@]5(C)CCC(OS(=O)(=O)c6ccccc6)C(C)(C)C5CC[C@]43C)C12 (stereo not given in full) | 4.49 | 28.5 | 8.58 | 25.6 | 10.1 | 32.7 | 4.42 | 20.6 | 13.6 | 51.5 | 2.55 | 19.3 | 4.49 | 20.1 | 3.84 | 25.4 | – | – | 8 | 42.4 |
